Patent US10105357B2, “Indication of antibiotic drugs for preparation of cancer inhibition pharmaceutical composition” (LAUNX BIOMEDICAL CO., LTD., priority 2014, dated 2018)
Where a name gives a salt, the structure may show the parent alone. Read-outs that look alike come from different tables or passages of the source.

Columns and labels:
[1] = tested on: HI650 (Lung Adenocarcinoma); assay: Cell viability analysis, lung cancer HI650; assay type: cell-based, human; details: Homo sapiens, NCI-H1650, 72 h
[2] = tested on: PC3 (p53−) (Prostate Adenocarcinoma); assay: Cell viability analysis, prostate cancer PC3; assay type: cell-based, human; details: Homo sapiens, 72 h
[3] = tested on: MDA-MB-231 (Mammary Gland, Adenocarcinoma); assay: Cell viability analysis, breast cancer MDA-MB-231; assay type: cell-based, human; details: Homo sapiens, MDA-MB-231, 72 h; MDA-MB231; repeated experiment; read-out: The results of antibiotic drug inhibiting cancer cell lines (cell viability analysis), MDA-MB231
NIH: OVCAR-3 = assay: Cell viability analysis, ovarian cancer NIH: OVCAR-3; assay type: cell-based, human; details: Homo sapiens, 72 h; NIH-OVCAR-3; repeated experiment; read-out: The results of antibiotic drug inhibiting cancer cell lines (cell viability analysis), NIH-OVCAR-3
[4] = tested on: HeLa (Cervix Adenocarcinoma); assay: Cell viability analysis, cervical cancer HeLa; assay type: cell-based, human; details: Homo sapiens, HeLa, 72 h, HeLa
T24 = assay: Cell viability analysis, bladder cancer T24; assay type: cell-based, human; details: Homo sapiens, T-24, 72 h; T24; repeated experiment; read-out: The results of antibiotic drug inhibiting cancer cell lines (cell viability analysis), T24
[5] = tested on: MKN-45 (Gastric Adenocarcinoma); assay: Cell viability analysis, gastric cancer MKN-45; assay type: cell-based, human; details: Homo sapiens, MKN-45, 72 h
U-2OS = assay: Cell viability analysis, osteosarcoma U-2OS; assay type: cell-based, human; details: Homo sapiens, 72 h; U2OS; repeated experiment; read-out: The results of antibiotic drug inhibiting cancer cell lines (cell viability analysis), U2OS
[6] = tested on: MCF7 (Mammary Gland, Adenocarcinoma); assay: Cell viability analysis, breast cancer MCF7; assay type: cell-based, human; details: Homo sapiens, MCF7, 72 h
TOV-21G = assay: Cell viability analysis, ovarian cancer TOV-21G; assay type: cell-based, human; details: Homo sapiens, TOV21G, 72 h; TOV-21G; repeated experiment; read-out: The results of antibiotic drug inhibiting cancer cell lines (cell viability analysis), TOV-21G
[7] = tested on: Hep3B (hepatocellular carcinoma); assay: Cell viability analysis, hepatic cancer Hep3B; assay type: cell-based, human; details: Homo sapiens, 72 h; Hep3B; repeated experiment; read-out: The results of antibiotic drug inhibiting cancer cell lines (cell viability analysis), Hep3B
[8] = tested on: C-33A (Cervical carcinoma); assay: Cell viability analysis, cervical cancer C-33A; assay type: cell-based, human; details: Homo sapiens, 72 h; C-33A; repeated experiment; read-out: The results of antibiotic drug inhibiting cancer cell lines (cell viability analysis), C-33A
[9] = tested on: HepG2 (Hepatocellular Carcinoma); assay: Cell viability analysis, hepatic cancer HepG2; assay type: cell-based, human; details: Homo sapiens, HepG2, 72 h
[10] = tested on: A375 (Amelanotic Melanoma); assay: Cell viability analysis, skin cancer A375; assay type: cell-based, human; details: Homo sapiens, A-375, 72 h
[11] = tested on: BCC (basal cell carcinoma); assay: Cell viability analysis, skin cancer BCC; assay type: cell-based, human; details: Homo sapiens, 72 h; BCC; repeated experiment; read-out: The results of antibiotic drug inhibiting cancer cell lines (cell viability analysis), BCC
BxPC-3 = assay: Cell viability analysis, pancreatic cancer BxPC-3; assay type: cell-based, human; details: Homo sapiens, 72 h; BxPC-3; repeated experiment; read-out: The results of antibiotic drug inhibiting cancer cell lines (cell viability analysis), BxPC-3
[12] = tested on: AGS (Gastric Adenocarcinoma); assay: Cell viability analysis, gastric cancer AGS; assay type: cell-based, human; details: Homo sapiens, 72 h
[13] = tested on: 786-O (Renal adenocarcinoma); assay: Cell viability analysis, renal cancer 786-O; assay type: cell-based, human; details: Homo sapiens, 786-0, 72 h; 786-O; repeated experiment; read-out: The results of antibiotic drug inhibiting cancer cell lines (cell viability analysis), 786-O
[14] = tested on: HCT116 (p53+) (Colorectal Carcinoma)
[15] = tested on: LoVo (Colorectal Adenocarcinoma); assay: Cell viability analysis, colon cancer LoVo; assay type: cell-based, human; details: Homo sapiens, LoVo, 72 h
[16] = tested on: SAS (Tongue squamous cell carcinoma); assay: Cell viability analysis, tongue cancer SAS; assay type: cell-based, human; details: Homo sapiens, 72 h; SAS; repeated experiment; read-out: The results of antibiotic drug inhibiting cancer cell lines (cell viability analysis), SAS
AsPC-1 = assay: Cell viability analysis, pancreatic cancer AsPC-1; assay type: cell-based, human; details: Homo sapiens, ASPC1, 72 h; AsPC-1; repeated experiment; read-out: The results of antibiotic drug inhibiting cancer cell lines (cell viability analysis), AsPC-1
[17] = tested on: TSGH-8301 (Urinary Bladder Carcinoma); assay: Cell viability analysis, bladder cancer TSGH-8301; assay type: cell-based, human; details: Homo sapiens, 72 h
[18] = tested on: A549 (Lung Adenocarcinoma); assay: Cell viability analysis, lung cancer A549; assay type: cell-based, human; details: Homo sapiens, A549, 72 h
[19] = H1650, repeated experiment, read-out: The results of antibiotic drug inhibiting cancer cell lines (cell viability analysis), H1650
[20] = drug 10 μM, 72 hours, WST-1, OD450 nm, read-out: cell viability (survival rate), H1650
[21] = PC-3, repeated experiment, read-out: The results of antibiotic drug inhibiting cancer cell lines (cell viability analysis), PC-3
[22] = drug 10 μM, 72 hours, WST-1, OD450 nm, read-out: cell viability (survival rate), PC3
[23] = repeated experiment, read-out: The results of antibiotic drug inhibiting cancer cell lines (cell viability analysis), HeLa
[24] = drug 10 μM, 72 hours, WST-1, OD450 nm, read-out: cell viability (survival rate), HeLa
[25] = MKN-45, repeated experiment, read-out: The results of antibiotic drug inhibiting cancer cell lines (cell viability analysis), MKN-45
[26] = drug 10 μM, 72 hours, WST-1, OD450 nm, read-out: cell viability (survival rate), MKN-45
[27] = MCF-7, repeated experiment, read-out: The results of antibiotic drug inhibiting cancer cell lines (cell viability analysis), MCF-7
[28] = drug 10 μM, 72 hours, WST-1, OD450 nm, read-out: cell viability (survival rate), MCF7
[29] = HepG2, repeated experiment, read-out: The results of antibiotic drug inhibiting cancer cell lines (cell viability analysis), HepG2
[30] = drug 10 μM, 72 hours, WST-1, OD450 nm, read-out: cell viability (survival rate), HepG2
[31] = A375, repeated experiment, read-out: The results of antibiotic drug inhibiting cancer cell lines (cell viability analysis), A375
[32] = drug 10 μM, 72 hours, WST-1, OD450 nm, read-out: cell viability (survival rate), A375
[33] = AGS, repeated experiment, read-out: The results of antibiotic drug inhibiting cancer cell lines (cell viability analysis), AGS
[34] = drug 10 μM, 72 hours, WST-1, OD450 nm, read-out: cell viability (survival rate), AGS
[35] = read-out: The results of antibiotic drug inhibiting cancer cell lines (cell viability analysis), LoVo, repeated experiment
[36] = read-out: cell viability (survival rate), LoVo, drug 10 μM, 72 hours, WST-1, OD450 nm
[37] = TSGH-8301, repeated experiment, read-out: The results of antibiotic drug inhibiting cancer cell lines (cell viability analysis), TSGH-8301
[38] = drug 10 μM, 72 hours, WST-1, OD450 nm, read-out: cell viability (survival rate), TSGH
[39] = A549, repeated experiment, read-out: The results of antibiotic drug inhibiting cancer cell lines (cell viability analysis), A549
[40] = drug 10 μM, 72 hours, WST-1, OD450 nm, read-out: cell viability (survival rate), A549

| SMILES | viability at 10 µM [1, 19] [%] | viability at 10 µM [1, 20] [%] | viability at 10 µM [2, 21] [%] | viability at 10 µM [2, 22] [%] | viability at 10 µM [3] [%] | viability at 10 µM (NIH: OVCAR-3) [%] | viability at 10 µM [4, 23] [%] | viability at 10 µM [4, 24] [%] | viability at 10 µM (T24) [%] | viability at 10 µM [5, 25] [%] | viability at 10 µM [5, 26] [%] | viability at 10 µM (U-2OS) [%] | viability at 10 µM [6, 27] [%] | viability at 10 µM [6, 28] [%] | viability at 10 µM (TOV-21G) [%] | viability at 10 µM [7] [%] | viability at 10 µM [8] [%] | viability at 10 µM [9, 29] [%] | viability at 10 µM [9, 30] [%] | viability at 10 µM [10, 31] [%] | further results |
| --- | --- | --- | --- | --- | --- | --- | --- | --- | --- | --- | --- | --- | --- | --- | --- | --- | --- | --- | --- | --- | --- |
| CC[C@@H]([C@H](C)O)n1ncn(-c2ccc(N3CCN(c4ccc(OC[C@@H]5CO[C@@](Cn6cncn6)(c6ccc(F)cc6F)C5)cc4)CC3)cc2)c1=O [Posaconazole] | 67.5 | 67 | 52.1 | 45.3 | 60.4 | 62.3 | 49.4 | 75.8 | 55.4 | 92.8 | 52 | 38.9 | 48 | 63.6 | 37.3 | 95.2 | 35.5 | 57.8 | 87.2 | 47.9 | viability at 10 µM [10, 32]: 49.8%; viability at 10 µM [11]: 43.5%; viability at 10 µM (BxPC-3): 42.6%; viability at 10 µM [12, 33]: 65.7%; viability at 10 µM [12, 34]: 42.7%; viability at 10 µM [13]: 18.1%; viability [14]: 51.6%; viability at 10 µM [15, 35]: 62%; viability at 10 µM [15, 36]: 73.7%; viability at 10 µM [16]: 26.6%; viability at 10 µM (AsPC-1): 32.2%; viability at 10 µM [17, 37]: 81.9%; viability at 10 µM [17, 38]: 51.3%; viability at 10 µM [18, 39]: 18.1%; viability at 10 µM [18, 40]: 42.9% |
| CN(C)CCC=C1c2ccccc2CCc2ccccc21 [Amitriptyline HCl] | 111 | 64.4 | 99.4 | 61.9 | 106 | 104 | 111 | 90.6 | 97.5 | 135 | 102 | 68.5 | 67.7 | 64.8 | 118 | 124 | 100 | 106 | 106 | 94.3 | viability at 10 µM [10, 32]: 84.8%; viability at 10 µM [11]: 113%; viability at 10 µM (BxPC-3): 67.2%; viability at 10 µM [12, 33]: 146%; viability at 10 µM [12, 34]: 61.5%; viability at 10 µM [13]: 85.5%; viability at 10 µM [15, 35]: 90.5%; viability at 10 µM [15, 36]: 96.5%; viability at 10 µM [16]: 67.5%; viability at 10 µM (AsPC-1): 73.1%; viability at 10 µM [17, 37]: 157%; viability at 10 µM [17, 38]: 133%; viability at 10 µM [18, 39]: 73.3%; viability at 10 µM [18, 40]: 69.3% |
| CC(C)/N=c1\cc2n(-c3ccc(Cl)cc3)c3ccccc3nc-2cc1Nc1ccc(Cl)cc1 [Clofazimine] | 92.2 | 74.4 | 106 | 53.2 | 102 | 97.3 | 94.3 | 59.3 | 74.1 | 108 | 53.1 | 80.6 | 74.2 | 51.2 | 65.1 | 91.6 | 111 | 90.4 | 82.2 | 81.2 | viability at 10 µM [10, 32]: 37.3%; viability at 10 µM [11]: 72.9%; viability at 10 µM (BxPC-3): 72.2%; viability at 10 µM [12, 33]: 78.8%; viability at 10 µM [12, 34]: 64.2%; viability at 10 µM [13]: 82.5%; viability at 10 µM [15, 35]: 83.4%; viability at 10 µM [15, 36]: 68.3%; viability at 10 µM [16]: 75.2%; viability at 10 µM (AsPC-1): 76.6%; viability at 10 µM [17, 37]: 111%; viability at 10 µM [17, 38]: 51.7%; viability at 10 µM [18, 39]: 87.1%; viability at 10 µM [18, 40]: 49.5% |
